# In US20120270908A1, “SUBSTITUTED 3 -HYDROZYPYRIDINES AND PHARMACEUTICAL COMPOSITIONS THEREOF” (priority 2007, published 2012):
# Assays:
# insulin receptor = target: T1, insulin receptor (Homo sapiens, UniProt P06213); assay: Activation of insulin receptor in HepG2 cells: phosphorylation of tyrosine residues 1162/1163, PhosphoDetect insulin receptor ELISA kit; format: cell-based; details: 10 min, PBS with 5 mM glucose, percentage of the response to 100 nM insulin, mean±SEM (n=8)
# T1 construct: endogenous in cells; host or cells: HepG2 (human hepatoma)
# Description: It is generally recognized that the phosphorylation increase activity of receptor to about 200-fold as compared to unphosphorylated one.
# [1] = test system: streptozotocin-induced male albino Wistar rats; assay: Streptozotocin-induced decompensated insulin resistance in rats: fasting serum glucose, plasma insulin, plasma triglycerides; format: in vivo; details: mean±SEM (n=10); for Glucose: fasting serum; for Insulin / Triglycerides: plasma
# Protocol: The rats with glucose levels more than 14.0 mmol/1 were used in the experiment one week after the streptozotocin injection.
# Streptozotocin-induced rats were assigned to three groups: a control rats (n=10) and experimental rats (n=20). Control rats received daily i.p. injections of saline for 7 days. Experimental rats received daily i.p. injections of 10 mg/kg 2-Ethyl-4,6-dimethyl-3-hydroxypyridine, succinic acid salt (1:1); or 2-Ethyl-4,5,6-trimethyl-3-hydroxypyridine, succinic acid salt (1:1) for 7 days. Biochemical parameters were determined just before start of the treatment and on 14 day from the start of the treatment.
# [2] = 14 Day from start, 10 mg/kg i.p. daily for 7 days
# [3] = before treatment (baseline of the group)
# T1 sequence (P06213 28-758 limits assumed): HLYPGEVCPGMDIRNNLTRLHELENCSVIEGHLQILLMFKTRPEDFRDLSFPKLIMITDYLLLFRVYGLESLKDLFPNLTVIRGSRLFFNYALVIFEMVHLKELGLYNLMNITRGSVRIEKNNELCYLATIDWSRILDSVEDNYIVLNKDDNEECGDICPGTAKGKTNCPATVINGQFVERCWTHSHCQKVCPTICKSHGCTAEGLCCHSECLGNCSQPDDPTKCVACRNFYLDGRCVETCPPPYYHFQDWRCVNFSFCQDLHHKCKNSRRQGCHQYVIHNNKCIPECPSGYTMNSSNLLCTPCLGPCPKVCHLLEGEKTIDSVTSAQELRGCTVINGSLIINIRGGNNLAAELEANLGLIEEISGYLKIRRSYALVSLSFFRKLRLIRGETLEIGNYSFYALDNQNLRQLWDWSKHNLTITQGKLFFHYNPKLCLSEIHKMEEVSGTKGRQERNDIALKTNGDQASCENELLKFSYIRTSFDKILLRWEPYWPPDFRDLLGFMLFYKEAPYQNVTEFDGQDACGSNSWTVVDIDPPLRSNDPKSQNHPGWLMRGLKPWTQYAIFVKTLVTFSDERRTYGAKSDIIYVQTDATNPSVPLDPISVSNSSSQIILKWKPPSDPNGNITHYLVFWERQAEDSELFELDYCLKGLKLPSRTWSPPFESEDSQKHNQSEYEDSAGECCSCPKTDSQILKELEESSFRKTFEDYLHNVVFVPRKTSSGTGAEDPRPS
# T1 sequence (P06213 763-1382 limits assumed): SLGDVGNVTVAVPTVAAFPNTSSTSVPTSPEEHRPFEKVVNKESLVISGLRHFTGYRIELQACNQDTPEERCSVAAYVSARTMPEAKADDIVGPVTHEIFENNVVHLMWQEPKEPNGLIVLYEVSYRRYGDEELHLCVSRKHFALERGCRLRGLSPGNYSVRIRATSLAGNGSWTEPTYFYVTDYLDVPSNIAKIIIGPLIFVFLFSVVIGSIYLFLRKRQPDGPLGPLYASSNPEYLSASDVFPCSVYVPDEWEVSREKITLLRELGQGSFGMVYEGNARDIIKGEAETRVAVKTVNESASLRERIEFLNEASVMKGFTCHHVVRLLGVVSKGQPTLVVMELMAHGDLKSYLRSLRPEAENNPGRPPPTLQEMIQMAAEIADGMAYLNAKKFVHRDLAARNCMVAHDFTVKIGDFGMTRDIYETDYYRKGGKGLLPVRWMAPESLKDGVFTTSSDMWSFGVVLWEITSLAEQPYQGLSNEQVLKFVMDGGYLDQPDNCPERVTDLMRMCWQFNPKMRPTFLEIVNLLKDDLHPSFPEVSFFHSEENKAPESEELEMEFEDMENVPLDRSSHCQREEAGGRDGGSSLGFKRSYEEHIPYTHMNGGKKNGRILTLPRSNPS
SMILES,"Insulin receptor phosphorylation, % (insulin receptor; compound 50 μM alone)","Insulin receptor phosphorylation, % (insulin receptor; insulin 5 nM + compound 50 μM)","Glucose [1, 2]","Glucose [1, 3]","Insulin [1, 2]","Triglycerides [1, 2]","Insulin [1, 3]","Triglycerides [1, 3]"
"CCc1nc(C)c(C)c(C)c1O.O=C(O)CCC(=O)O [2-Ethyl-4,5,6-trimethyl-3-hydroxypyridine, succinic acid salt (1:1)]",13 ± 2%,62 ± 8 %,7.3 ± 1.1 mmol/L,16.0 ± 2.6 mmol/L,2.3 ± 0.5 ng/mL,1.6 ± 0.3 mmol/L,11.4 ± 2.0 ng/mL,3.1 ± 0.2 mmol/L
"CCc1nc(C)cc(C)c1O.O=C(O)CCC(=O)O [2-Ethyl-4,6-dimethyl-3-hydroxypyridine, succinic acid salt (1:1)]",14 ± 4%,56 ± 7 %,8.5 ± 1.3 mmol/L,15.9 ± 2.1 mmol/L,2.9 ± 0.4 ng/mL,1.8 ± 0.4 mmol/L,11.2 ± 1.7 ng/mL,2.9 ± 0.4 mmol/L
